The record followed here is patent US9404081B2, “Pyruvate kinase activators for use in therapy” (AGIOS PHARMACEUTICALS, INC., priority 2011, dated 2016).

One may read the AC50 as the concentration at which the activity in the assay is half-maximal.

Each structure is given as a SMILES string. Where only a bound is given, the exact number is not on record here.

What all share (type): biochemical
Assay [1] deals with T1, PKR R510Q (Homo sapiens, UniProt P30613, R510Q). Description: PKR R510Q Single Point Percent Activation Assay. The note with it: read-out: Act. % 510Q. Summed up: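 Test compound was used at a single concentration of 1 μM and preincubated 60 min at room temperature with PKR R510Q (40 ng/well). The buffer was 50 mM Tris pH 7.5, 100 mM KCl, 5 mM MgCl2, 1 mM DTT and 0.03% BSA. The reaction was started with 0.2 mM ADP and read as OD340 in an LDH-coupled system (0.11 mM PEP, 180 μM NADH).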

Assay [2] has as its target T1, PKR R510Q. Description: PKR Mutant Assay (AC50), PKR R510Q. The procedure: (§1) • PKR or PKR mutant enzyme solution was diluted in assay buffer. • 2 μL of test compound was added into wells first, and then 180 μL reaction mix was added. • Reactions mixture with test compound was assembled except for ADP, and plates were stored for 60 minutes at room temperature. • 20 uL ADP was added to start reaction at room temperature and reaction progress was measured as changes in absorbance at 340 nm wavelength at room temperature.
(§2) Test Compound Preparation: • Test compound stock was made at 100× concentration in 100% DMSO (10 mM) • 1 to 3 dilutions were made for 11 points (i.e. 50 μl of first concentration added to 100 μl 100% DMSO to yield 3.33 mM, 50 μl of this added to 100 μl DMSO to yield 1.11 mM, and so forth) • 1 to 100 dilution into assay (2 μl in 200 μl) yielded starting concentration of 100 μM, decreasing 3 fold for 11 points. Assay Buffer: 100 mM KCl, 50 mM Tris 7.5, 5 mM MgCl2, 1 mM DTT, 0.03% BSA Reaction Mixture: PKR mutant enzyme: 80-400 ng/well; ADP: 0.22-1.65 mM; PEP: 0.1-0.5 mM; NADH: 180 uM; LDH: 0.5 units (Sigma#59023); DTT: 1 mM; BSA: 0.03%.

In the next assay the target is PKR wt (Homo sapiens, UniProt P30613). Description: PKR WT Single Point Percent Activation Assay. Summed up:
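Single concentration of 1 μM compound preincubated 60 min at RT with PKR wt (100 ng/well) in Tris pH 7.5, KCl, MgCl2, DTT, BSA. Reaction started with ADP (0.48 mM final) with PEP 0.15 mM, coupled LDH/NADH (180 μM), read at OD340, room temperature; given as percent activation.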

The target in assay [3] is PKR T384W (Homo sapiens, UniProt P30613, T384W). Description: PKR T384W Single Point Percent Activation Assay. To be noted: read-out: Act. % 384W. Summed up:
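Soluble PKR T384W (300 ng/well) preincubated 60 min at RT with 1 μM compound in 50 mM Tris pH 7.5, 100 mM KCl, 5 mM MgCl2, 1 mM DTT, 0.03% BSA. Started with ADP (0.08 mM); PEP 0.23 mM, LDH-coupled NADH (180 μM) consumption read at OD340, room temperature.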

In assay [4] the target is T2, PKR R532W (Homo sapiens, UniProt P30613, R532W). Description: PKR R532W Single Point Percent Activation Assay. The note with it: read-out: Act, % 532W. Summed up:
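PKR R532W (100 ng/well) preincubated 60 min at RT with compound at 1 μM in Tris pH 7.5, KCl, MgCl2, DTT, BSA. Reaction started with ADP (0.36 mM), with PEP 0.1 mM, NADH 180 μM and LDH coupling; read at OD340, room temperature.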

Another assay has as its target PKR G364D (Homo sapiens, UniProt P30613, G364D). Description: PKR Mutant Assay (AC50), PKR G364D. The procedure:
as §1, §2

The target of another assay is wild type PKR (Homo sapiens, UniProt P30613). Description: PKR Mutant Assay (AC50), wild type PKR. To be noted: read-out: PKR WT AC50. On the procedure:
as §1, §2

The target in assay [5] is PKR T384W (Homo sapiens, UniProt P30613). Description: PKR Mutant Assay (AC50), PKR T384W. The procedure: as §1, §2
In a further assay the target is PKR R479H (Homo sapiens, UniProt P30613, R479H). Description: PKR Mutant Assay (AC50), PKR R479H. The procedure: as §1, §2
Assay [6] deals with T2, PKR R532W. Description: PKR Mutant Assay (AC50), PKR R532W. On the procedure:
as §1, §2

T2 sequence (P30613 whole entry R532W): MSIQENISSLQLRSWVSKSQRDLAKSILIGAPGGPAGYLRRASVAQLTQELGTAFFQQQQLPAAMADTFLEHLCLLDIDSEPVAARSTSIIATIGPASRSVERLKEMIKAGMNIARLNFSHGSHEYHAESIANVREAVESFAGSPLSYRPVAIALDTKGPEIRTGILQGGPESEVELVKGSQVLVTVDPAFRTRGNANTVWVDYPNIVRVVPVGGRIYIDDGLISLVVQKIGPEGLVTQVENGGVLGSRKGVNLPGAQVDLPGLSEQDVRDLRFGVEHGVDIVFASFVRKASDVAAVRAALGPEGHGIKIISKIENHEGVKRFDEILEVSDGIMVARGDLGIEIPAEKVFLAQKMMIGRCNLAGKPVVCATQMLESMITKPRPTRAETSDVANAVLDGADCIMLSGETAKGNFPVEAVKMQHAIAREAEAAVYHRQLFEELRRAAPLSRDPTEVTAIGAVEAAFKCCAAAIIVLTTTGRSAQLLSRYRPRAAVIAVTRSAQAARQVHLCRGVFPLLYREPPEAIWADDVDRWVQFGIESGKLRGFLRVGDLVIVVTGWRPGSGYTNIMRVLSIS
PKR R479H, sequence (P30613 whole entry R479H): as the sequence (P30613 whole entry R532W) above, with R479H, W532R counted along it
wild type PKR, sequence (P30613 whole entry): as the sequence (P30613 whole entry R532W) above, with W532R counted along it
PKR wt, sequence (P30613 whole entry): as the sequence (P30613 whole entry R532W) above, with W532R counted along it
T1 sequence (P30613 whole entry R510Q): as the sequence (P30613 whole entry R532W) above, with R510Q, W532R counted along it
PKR T384W (Homo sapiens, UniProt P30613), sequence (P30613 whole entry T384M): as the sequence (P30613 whole entry R532W) above, with T384M, W532R counted along it
PKR T384W (Homo sapiens, UniProt P30613, T384W), sequence (P30613 whole entry T384W): as the sequence (P30613 whole entry R532W) above, with T384W, W532R counted along it
PKR G364D, sequence (P30613 whole entry G364D): as the sequence (P30613 whole entry R532W) above, with G364D, W532R counted along it

On to `CC1CN(Cc2ccccc2)CC(C)N1C(=O)c1ccc(NS(=O)(=O)c2cccc3cccnc23)cc1` (stereo not shown), for which the activation at 1 µM on PKR R510Q [1], on PKR wt, at PKR T384W [3] and at PKR R532W [4] was 101 to 500% in each case. Besides, the AC50 at PKR R510Q [2] is less than 100 nM.

For the compound `COc1ccccc1N1CCN(C(=O)c2ccc(NS(=O)(=O)c3cccc4cccnc34)cc2)C(C)C1` (stereo not shown), the activation at 1 µM at PKR R510Q [1], on PKR wt, at PKR T384W [3] and on PKR R532W [4] was 101 to 500% throughout. Moreover, the AC50 at PKR G364D was 101 to 500 nM; at PKR R510Q [2], greater than 500 nM; on wild type PKR, less than 100 nM; on PKR T384W [5], less than 100 nM; on PKR R479H, less than 100 nM; at PKR R532W [6], less than 100 nM.

For `O=C(c1ccc(NS(=O)(=O)c2cccc3cccnc23)cc1)N1CCN(C[C@@H]2CCOC2)CC1`, the activation at 1 µM on PKR R510Q [1] lay in the range of 101 to 500%; at PKR wt, 1 to 100%; on PKR T384W [3], 101 to 500%; at PKR R532W [4], 1 to 100%. For the same compound, the AC50 on PKR R510Q [2] was 101 to 500 nM; on wild type PKR it was less than 100 nM; on PKR T384W [5], less than 100 nM; at PKR R479H, less than 100 nM; at PKR R532W [6], less than 100 nM.

Consider `CC(C)OC(=O)N1CCN(C(=O)c2ccc(NS(=O)(=O)c3cccc4cccnc34)cc2)[C@H](C)C1`, for which the activation at 1 µM on PKR R510Q [1], on PKR wt, at PKR T384W [3] and on PKR R532W [4] was 101 to 500% each time. The AC50 at PKR R510Q [2] was greater than 500 nM; on wild type PKR, less than 100 nM; at PKR R532W [6] it was less than 100 nM.

Regarding `O=C(c1ccc(NS(=O)(=O)c2cccc3cccnc23)cc1)N1CCN(C[C@H]2CCOC2)CC1`, the activation at 1 µM on PKR R510Q [1] lay within 101 to 500%; at PKR wt, 101 to 500%; at PKR T384W [3], 101 to 500%; at PKR R532W [4] it was 1 to 100%. The half-maximal activity concentration (AC50) was 101 to 500 nM at PKR R510Q [2]; less than 100 nM on wild type PKR; less than 100 nM on PKR T384W [5]; less than 100 nM at PKR R479H; less than 100 nM at PKR R532W [6].

In the case of `CCOC(=O)N1CCN(C(=O)c2ccc(NS(=O)(=O)c3cccc4cccnc34)cc2)[C@@H](C)C1`, the activation at 1 µM at PKR R510Q [1] was 1 to 100%; at PKR wt it was 101 to 500%; at PKR T384W [3] it was 101 to 500%; at PKR R532W [4], 101 to 500%. Moreover, the half-maximal activity concentration (AC50) on wild type PKR and at PKR R532W [6] was greater than 500 nM in each case.

As for `CC(C)OC(=O)N1[C@H](C)CN(C(=O)c2ccc(NS(=O)(=O)c3cccc4cccnc34)cc2)C[C@@H]1C`, the activation at 1 µM on PKR R510Q [1], on PKR wt, on PKR T384W [3] and at PKR R532W [4] was 101 to 500% in each case. In addition, the concentration at half-maximal activity (AC50) on wild type PKR was less than 100 nM; at PKR R532W [6] it was greater than 500 nM.

Turning to `O=C(c1ccc(NS(=O)(=O)c2cccc3cccnc23)cc1)N1C2CCC1CN(CC1CC1)C2`, the activation at 1 µM is 1 to 100% at PKR R510Q [1], 101 to 500% on PKR wt, 101 to 500% at PKR T384W [3] and 101 to 500% at PKR R532W [4].

In the case of `CC1CN(Cc2cc(F)c(F)c(F)c2)CC(C)N1C(=O)c1ccc(NS(=O)(=O)c2cccc3cccnc23)cc1` (stereo not shown), the activation at 1 µM on PKR R510Q [1] lay in the range of 1 to 100%; at PKR wt it was 1 to 100%; on PKR T384W [3], 1 to 100%; at PKR R532W [4] it was 101 to 500%.

As to `C[C@H]1CN(Cc2cc(F)c(F)cc2F)CCN1C(=O)c1ccc(NS(=O)(=O)c2cccc3cccnc23)cc1`, the activation at 1 µM fell in the range of 1 to 100% at PKR R510Q [1], 1 to 100% at PKR wt, 101 to 500% at PKR T384W [3] and 1 to 100% on PKR R532W [4].

On to `C[C@@H]1CN(C[C@@H]2CCCO2)CCN1C(=O)c1ccc(NS(=O)(=O)c2cccc3cccnc23)cc1`, for which the activation at 1 µM on PKR R510Q [1], at PKR wt, at PKR T384W [3] and at PKR R532W [4] was 101 to 500% throughout.

As to `C[C@@H]1CN(Cc2c(F)ccc(F)c2F)CCN1C(=O)c1ccc(NS(=O)(=O)c2cccc3cccnc23)cc1`, the activation at 1 µM lay within 1 to 100% on PKR R510Q [1], 101 to 500% on PKR wt, 101 to 500% at PKR T384W [3] and 101 to 500% on PKR R532W [4].

With `C[C@H]1CN(CC2CCCC2)CCN1C(=O)c1ccc(NS(=O)(=O)c2cccc3cccnc23)cc1Cl`, the activation at 1 µM on PKR R510Q [1], at PKR wt, on PKR T384W [3] and at PKR R532W [4] was 1 to 100% in each case.
